Reference: patent US20190218588A1, “NOVEL CELL CULTURE METHOD, CELL CULTURE SYSTEM AND USES THEREOF” (priority 2016, published 2019)

Tested on: human hepatocytes cultured in human plasma medium
Format: cell-based

COc1cc2c(c3oc(=O)c4c(c13)CCC4=O)[C@@H]1C=CO[C@@H]1O2 [Aflatoxin B1]
UC50 value after day 10 treatment relative to 2-day treatment (fold lower): 19 × | cytotoxicity to human hepatocytes: cytotoxic
